Data set [1] relates to C. glabrata cells. Put plainly: Dead cell staining with propidium iodide. In kind it is cell-based, Candida glabrata. The conditions noted are these: 24 h. How it is done:
Propidium iodide (Sigma) was freshly prepared to a final concentration of 5 µg/mL in PBS.
The samples were incubated at 30°C and harvested to a total number of cells equivalent to a 5-mL culture with an OD600 of 0.3 at 6 and 24 h. As a positive control for cell death, cells treated with DMSO were incubated at 75°C for 1 h. The cells were centrifuged at 7,000 rpm for 5 minutes to remove the supernatant, followed by resuspension of the cell pellets in 100-µL 5 µg/mL propidium iodide for 10 minutes in the dark at room temperature. The supernatant was removed by centrifugation at 7,000 rpm for 5 minutes, followed by washing with 500-µL PBS and a final centrifugation at 7,000 rpm for 5 minutes. Finally, the cells were resuspended in 150-µL PBS and measured for fluorescence intensity using a microplate reader.
The autofluorescence of the unstained treated samples was subtracted from raw fluorescence intensities of the stained samples and then normalized to DMSO. Normalized values were log transformed and then analyzed using one-way ANOVA and Tukey’s HSD post hoc test.

The subject of a further data set is HEK-293 and HS-5 cells. Kind of data set: Incucyte live-cell imaging of treated human cells (morphology, compound precipitation).
Data set [2] relates to G. mellonella larvae infected with C. glabrata 2001HT. Put plainly: Survival assay in infected Galleria mellonella. The conditions noted are these: wild-type C. glabrata (2001HT), 30 µM, vs DMSO. In kind it is in vivo. How it is done: (§1) Galleria mellonella was obtained from R.J. Mous Livebait (The Netherlands). The larvae were selected by weight (0.2–0.3 grams) and by the absence of dark spots on the cuticle. The larvae were maintained at room temperature, and the day before the experiment, they were transferred to the temperature at which the experiment was going to be performed (30°C). The number of dead caterpillars was scored every day. […] G. mellonella were infected with either C. glabrata 2001HT or FL-256; C. glabrata cells were grown in liquid media (Oxoid) overnight at 30°C with moderate shaking (150 rpm). Groups of 20 larvae per strain were infected in each experiment. The pro-leg area was cleaned with 70% ethanol using a swab. The larvae were inoculated with 10 µL of C. glabrata suspension at 2.5 × 10^6 cells/mL in PBS containing 50 µg/mL of ampicillin by injection, using a Hamilton syringe with 26-gauge needle in the last left pro-leg.

Data set [3] concerns G. mellonella larvae infected with C. glabrata FL-256. Kind of data set: Survival assay in infected Galleria mellonella. In kind it is in vivo. The following applies: azole-resistant C. glabrata (FL-256), 30 µM, vs DMSO. How it is done:
as §1

The next data set concerns Candida spp. Put plainly: Compound screening: Candida proliferation (OD600, 24 h), strain panel. It counts as cell-based. The conditions noted are these: YNB −iron. How it is done:
For experiments, yeast cells were routinely cultured in YPD media and incubated at 30°C overnight. The cultures were refreshed the next day for 2–3 h in YNB −iron (0.69% yeast nitrogen base without amino acids or iron, with 2% dextrose) media, unless stated, at the same temperature. After incubation, the optical density (OD600) of the cell cultures was measured and adjusted to 0.15.
The collismycin compounds were provided by EntreChem (Spain) at stock solutions of 20 mM in DMSO and stored at −20°C. For serial dilutions of the compounds in clear 96-well plates, intermediate stock concentrations of 100 µM of compound (100 µL for each technical replicate) were prepared in YNB −iron media unless otherwise specified, and 1:1 serial dilutions were performed using a multi-channel pipette. Fifty microliters of cell culture (OD600 = 0.15) were added to the wells containing the compounds, for a total volume of 150 µL. The final concentrations in the wells (with three technical replicates) were equivalent to 0.5, 1, 2.1, 4.2, 8.4, 16.7, 33.3, and 66.6 µM. The OD600 of each well was quantified, and the plates were incubated inside plastic bags (to prevent evaporation) at 30°C for 24 h, after which the final OD600 was measured. The EC50 was calculated using the four-parameter log logistic function with the drc package in R ([57]).

Data set [4] relates to Aft1/2 target genes FTR1, FET3, HMX1, LSO1 in WT S. cerevisiae. Put plainly: RT-qPCR of Aft1/2 target genes. It counts as cell-based, Saccharomyces cerevisiae. The conditions noted are these: WT Sc cells, 10 µM, 24 h. How it is done:
WT and […] cells were grown overnight in complete supplement mixture (CSM). […] After 24 h of incubation, cells were collected, and total RNA purification, reverse transcription, and RT-qPCR were performed as previously described with minor modifications ([59], [66]). Briefly, total RNA was purified using the RNeasy Mini Kit (74104, Qiagen), and reverse transcription was performed using the QuantiTect Reverse Transcription Kit (205311, Qiagen). RT-qPCR experiments were done using the HOT FIREPol EvaGreen qPCR Mix (08-36-00001-10, Solis Biodyne) and a LightCycler 96 System (Roche). Expression of the 5S gene was used as a control. The primers used in RT-qPCR experiments are as follows: […]

A further data set concerns C. albicans WT. The following applies: Candida albicans, 24 h, read-out: C. albicans WT Inhibition (%).
Another data set deals with C. glabrata WT. Kind of data set: Cell proliferation with metal supplementation. It counts as cell-based, Candida glabrata. On the procedure: One-millimolar stocks of metal solutions (CaCl2, CuCl2, FeCl2, FeCl3, MgCl2, MnCl2, and ZnCl2) were prepared in mQH2O and autoclaved. […] Fifty microliters of either mQH2O or metal solution were added to each well, including 50 µL of refreshed C. glabrata WT with an adjusted OD600 of 0.15. The 96-well plates were measured at OD600 and incubated in plastic bags to prevent evaporation for 24 h, after which the final OD600 was measured.

The test system of data set [5] is C. glabrata cells. Put plainly: ROS assay (H2DCF-DA fluorescence). It counts as cell-based, Candida glabrata. The conditions noted are these: 30 µM.

The values that follow come from article PMC10845951, “Characterization of a selective, iron-chelating antifungal compound that disrupts fungal metabolism and synergizes with fluconazole” (Microbiology Spectrum, 2024).

Usually inhibition stands for the change of the read-out against control, counted positive when it falls.

Take `c1ccc(-c2cccc(-c3ccccn3)n2)nc1` [2,2′:6′,2′′-terpyridine]: the “number of propidium iodide-positive cells” value in the data set on C. glabrata cells [1] (10 µM, vs DMSO) was “apparent reduction in the number of propidium iodide-positive cells”. In addition, in the data set with C. glabrata cells [1], the “mode of antifungal effect” value was “cytostatic effect”. The “propidium iodide fluorescence (cell death)” value in the data set on C. glabrata cells [1] (increasing concentrations) is on record as “no significant difference in fluorescence intensity compared to DMSO”. Moreover, the cell morphology result in the data set on HEK-293 and HS-5 cells (100 µM) is reported as “morphological changes”. In addition, the “compound precipitation / solubility” value in the data set with HEK-293 and HS-5 cells (cell culture medium, up to 100 µM) is listed as “better solubility”. For the same molecule, the “survival of infected larvae” value in data set [2] was “significantly improved the survival”. Besides, in [3], the “survival of infected larvae” value is recorded as “significantly improved the survival”. For the same molecule, in the data set with Candida spp., the “inhibition of growth of Candida spp. compared to ColA” value is given as “more potently than ColA”. Moreover, in data set [4], the “expression of Aft1/2 target genes FTR1, FET3, HMX1, LSO1” value is listed as “robust activation” and the “expression of control 5S RNA” value is “no effect”. Further, in the data set on C. albicans WT, the inhibition at 1 µM is -6.82%, the inhibition at 2 µM was -0.43%, the inhibition at 3 µM was determined as 1.52% and the inhibition at 4 µM was determined as 7.25%. Also, in the data set with C. albicans WT, the inhibition at 5 µM amounted to 9.76% and the inhibition at 10 µM was determined as 79.1%. Moreover, the “change of EC50 on metal addition” value in the data set on C. glabrata WT (+5 µM Cu^2+ (CuCl2), 24 h) is on record as “significantly increased”. In the data set on C. glabrata WT (+5 µM FeCl2, 24 h), the “change of EC50 on metal addition” value is on record as “significantly increased”. The “change of EC50 on metal addition” value in the data set with C. glabrata WT (+5 µM Zn^2+ (ZnCl2), 24 h) was “significantly increased”. For the same molecule, the ROS formation result in the data set with C. glabrata cells [5] (3 or 6 h) is given as “no ROS formation could be detected”. In addition, the ROS formation entry in the data set on C. glabrata cells [5] (24 h) is on record as “significant ROS production”.
